Measurements: patent US11696913B2, “Prolonged ectoparasite-controlling agent for animal” (MITSUI CHEMICALS AGRO, INC., priority 2017, dated 2023)

Experiments:
Ctenocephalides felis [1] = test: In vitro contact test with fleas; conditions: read-out: insecticidal activity; for pest or weed control at 0.2 µg/cm2, 0.2 µg/cm2: dose 0.2 μg/cm^2, dead or moribund fleas after 48 h; for pest or weed control at 1 µg/cm2, 1 µg/cm2: dose 1 μg/cm^2, dead or moribund fleas after 48 h; for pest or weed control at 0.04 µg/cm2, 0.04 µg/cm2: dose 0.04 μg/cm^2, dead or moribund fleas after 48 h
In short: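 Activity is the percentage of fleas dead or moribund at 48 h, judged by immobility or uncoordinated movement after tapping. Tubes were coated by evaporating acetone solutions (900 ppm gives 5 μg/cm^2), then held 5-10 adult fleas of both sexes at room temperature and ambient humidity.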

Amblyomma americanum = test: In vitro contact test with hard ticks (Amblyomma americanum nymphs); conditions: read-out: acaricidal activity; for pest or weed control at 0.2 µg/cm2, 0.2 µg/cm2: dose 0.2 μg/cm^2, 48 h; for pest or weed control at 1 µg/cm2, 1 µg/cm2: dose 1 μg/cm^2, 48 h
In short: (§1)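 Acaricidal activity = % ticks dead or moribund after 48 h contact with acetone-deposited compound on vial walls (e.g., 900 ppm solution → 5 μg/cm^2). Ambient conditions for R. sanguineus, 21° C./85% rel. hum. for other species; heat challenge at 45-50° C. separated climbers from moribund ticks.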

Rhipicephalus sanguineus = test: In vitro contact test with adult hard ticks (Rhipicephalus sanguineus); conditions: read-out: acaricidal activity; for pest or weed control at 0.2 µg/cm2, 0.2 µg/cm2: dose 0.2 μg/cm^2, 48 h; for pest or weed control at 1 µg/cm2, 1 µg/cm2: dose 1 μg/cm^2, 48 h
In short: as §1

[2] = test system: Rhipicephalus (Boophilus) microplus; test: In vitro injection test with Rhipicephalus (Boophilus) microplus (BOOPMI Inj); conditions: 168 h, laid fertile eggs after 7 days, read-out: acaricidal activity; for pest or weed control at 0.00016 mg: dose 0.16 μg/animal injected; for pest or weed control at 0.0008 mg: dose 0.8 μg/animal injected; for pest or weed control at 32 ng: dose 0.032 μg/animal injected
In short: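 Five engorged adult females each get a 1 μl abdominal injection of compound dissolved and diluted in DMSO. Kept 7 days at 28° C./85% rel. hum.; percent activity rates egg laying and egg fertility (0% all fertile, 100% none laid or infertile).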

Ctenocephalides felis [3] = test: Ctenocephalides felis in-vitro feeding test with fleas (CTECFE oral); conditions: 48 hours, read-out: insecticidal feeding activity; for pest or weed control at 0.032 ppm: dose 0.032 ppm in citrated cattle blood; for pest or weed control at 0.16 ppm: dose 0.16 ppm in citrated cattle blood; for pest or weed control at 0.8 ppm: dose 0.8 ppm in citrated cattle blood; for pest or weed control at 4 ppm: dose 4 ppm in citrated cattle blood
In short: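 Scored as percent fleas killed (0–100%) 48 hours after feeding began. Compound, dissolved in DMSO and diluted into citrated cattle blood, was offered via a parafilm membrane to roughly 20 adult male and female C. felis at about 37° C.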

Spodoptera litura = test: Insecticidal testing against common cutworm; assay type: in vivo; conditions: foliar, 144 h, concentration 100 ppm, cabbage leaf dip, second-stage larvae, after 6 days, read-out: pesticidal rate
Description: Insecticidal Testing Against Common Cutworm (Spodoptera litura)

Plutella xylostella = test: Insecticidal testing against diamondback moth; assay type: in vivo; conditions: foliar, 144 h, concentration 100 ppm, cabbage leaf dip, third-stage larvae, after 6 days, read-out: pesticidal rate
Description: Insecticidal Testing Against Diamondback Moth (Plutella xylostella)

Laodelphax striatellus = test: Insecticidal testing against small brown planthopper; assay type: in vivo; conditions: 144 h, concentration 100 ppm, sprayed rice seedlings, after 6 days, read-out: pesticidal rate
Procedure: Insecticidal Testing Against Small Brown Planthopper (Laodelphax striatellus)
An additional test was carried out with 10 small brown planthoppers by preparing an acetone solution of the testing compound diluted to a predetermined concentration, spraying the solution onto rice seedlings and air drying the rice seedlings. The medicament was all used as received. The rice seedlings were placed in a constant-temperature room at 25° C., and the survival rate was investigated after 6 days. The test was carried out by means of one group of 10 pests.

Dermacentor variabilis = test: In vitro contact test with adult hard ticks (Dermacentor variabilis); conditions: read-out: acaricidal activity; for pest or weed control at 0.2 µg/cm2, 0.2 µg/cm2: dose 0.2 μg/cm^2, 48 h; for pest or weed control at 1 µg/cm2, 1 µg/cm2: dose 1 μg/cm^2, 48 h
In short: as §1

CN(C(=O)c1ccc(F)cc1)c1cccc(C(=O)Nc2c(I)cc(C(F)(C(F)(F)F)C(F)(F)F)cc2[S+]([O-])C(F)(F)F)c1F (centres unmarked) [Compound 69]
pest or weed control at 0.2 µg/cm2, 0.2 µg/cm2 (Ctenocephalides felis [1]): 95%
pest or weed control at 1 µg/cm2, 1 µg/cm2 (Ctenocephalides felis [1]): 95%
pest or weed control at 0.2 µg/cm2, 0.2 µg/cm2 (Amblyomma americanum): 90%
pest or weed control at 1 µg/cm2, 1 µg/cm2 (Amblyomma americanum): 90%
pest or weed control at 0.2 µg/cm2, 0.2 µg/cm2 (Rhipicephalus sanguineus): 90%
pest or weed control at 1 µg/cm2, 1 µg/cm2 (Rhipicephalus sanguineus): 90%
pest or weed control at 0.00016 mg [2]: 100%
pest or weed control at 0.0008 mg [2]: 100%
pest or weed control at 0.032 ppm (Ctenocephalides felis [3]): 95%
pest or weed control at 0.16 ppm (Ctenocephalides felis [3]): 95%
pest or weed control at 0.8 ppm (Ctenocephalides felis [3]): 95%
pest or weed control at 4 ppm (Ctenocephalides felis [3]): 95%
pest or weed control at 100 ppm (Spodoptera litura): ≥ 70%
pest or weed control at 100 ppm (Plutella xylostella): ≥ 70%
pest or weed control at 100 ppm (Laodelphax striatellus): ≥ 70%

CN(C(=O)c1ccc(C(F)(F)F)cc1)c1cccc(C(=O)Nc2c(I)cc(C(F)(C(F)(F)F)C(F)(F)F)cc2C(F)(F)F)c1F [Compound 59]
pest or weed control at 0.2 µg/cm2, 0.2 µg/cm2 (Ctenocephalides felis [1]): 95%
pest or weed control at 1 µg/cm2, 1 µg/cm2 (Ctenocephalides felis [1]): 95%
pest or weed control at 1 µg/cm2, 1 µg/cm2 (Amblyomma americanum): 90%
pest or weed control at 0.2 µg/cm2, 0.2 µg/cm2 (Rhipicephalus sanguineus): 90%
pest or weed control at 1 µg/cm2, 1 µg/cm2 (Rhipicephalus sanguineus): 90%
pest or weed control at 32 ng [2]: 100%
pest or weed control at 0.00016 mg [2]: 100%
pest or weed control at 0.0008 mg [2]: 100%
pest or weed control at 0.16 ppm (Ctenocephalides felis [3]): 95%
pest or weed control at 0.8 ppm (Ctenocephalides felis [3]): 95%
pest or weed control at 4 ppm (Ctenocephalides felis [3]): 95%
pest or weed control at 100 ppm (Spodoptera litura): ≥ 70%
pest or weed control at 100 ppm (Plutella xylostella): ≥ 70%
pest or weed control at 100 ppm (Laodelphax striatellus): ≥ 70%

CN(C(=O)c1ccc(C(F)F)nc1)c1cccc(C(=O)Nc2c(I)cc(C(F)(C(F)(F)F)C(F)(F)F)cc2C(F)(F)F)c1F [Compound 87]
pest or weed control at 0.04 µg/cm2, 0.04 µg/cm2 (Ctenocephalides felis [1]): 95%
pest or weed control at 0.2 µg/cm2, 0.2 µg/cm2 (Ctenocephalides felis [1]): 95%
pest or weed control at 1 µg/cm2, 1 µg/cm2 (Ctenocephalides felis [1]): 95%
pest or weed control at 0.2 µg/cm2, 0.2 µg/cm2 (Amblyomma americanum): 90%
pest or weed control at 1 µg/cm2, 1 µg/cm2 (Amblyomma americanum): 90%
pest or weed control at 0.2 µg/cm2, 0.2 µg/cm2 (Dermacentor variabilis): 90%
pest or weed control at 1 µg/cm2, 1 µg/cm2 (Dermacentor variabilis): 90%
pest or weed control at 32 ng [2]: 100%
pest or weed control at 0.00016 mg [2]: 100%
pest or weed control at 0.0008 mg [2]: 100%
pest or weed control at 0.032 ppm (Ctenocephalides felis [3]): 95%
pest or weed control at 0.16 ppm (Ctenocephalides felis [3]): 95%
pest or weed control at 0.8 ppm (Ctenocephalides felis [3]): 95%
pest or weed control at 4 ppm (Ctenocephalides felis [3]): 95%
pest or weed control at 100 ppm (Spodoptera litura): ≥ 70%
pest or weed control at 100 ppm (Plutella xylostella): ≥ 70%
pest or weed control at 100 ppm (Laodelphax striatellus): ≥ 70%

CN(C(=O)c1ccc(C(F)(F)F)nc1)c1cccc(C(=O)Nc2c(I)cc(C(F)(C(F)(F)F)C(F)(F)F)cc2OC(F)(F)F)c1F [Compound 117, N-(2-fluoro-3-((2-iodo-4-(perfluoropropan-2-yl)-6-(trifluoromethoxy)phenyl)carbamoyl)phenyl)-N-methyl-6-(trifluoromethyl)nicotinamide]
pest or weed control at 0.2 µg/cm2, 0.2 µg/cm2 (Ctenocephalides felis [1]): 95%
pest or weed control at 1 µg/cm2, 1 µg/cm2 (Ctenocephalides felis [1]): 95%
pest or weed control at 1 µg/cm2, 1 µg/cm2 (Amblyomma americanum): 90%
pest or weed control at 0.2 µg/cm2, 0.2 µg/cm2 (Rhipicephalus sanguineus): 90%
pest or weed control at 1 µg/cm2, 1 µg/cm2 (Rhipicephalus sanguineus): 90%
pest or weed control at 32 ng [2]: 100%
pest or weed control at 0.00016 mg [2]: 100%
pest or weed control at 0.0008 mg [2]: 100%
pest or weed control at 0.032 ppm (Ctenocephalides felis [3]): 95%
pest or weed control at 0.16 ppm (Ctenocephalides felis [3]): 95%
pest or weed control at 0.8 ppm (Ctenocephalides felis [3]): 95%
pest or weed control at 4 ppm (Ctenocephalides felis [3]): 95%
pest or weed control at 100 ppm (Spodoptera litura): ≥ 70%
pest or weed control at 100 ppm (Plutella xylostella): ≥ 70%
pest or weed control at 100 ppm (Laodelphax striatellus): ≥ 70%

Cc1ccc(C(=O)N(C)c2cccc(C(=O)Nc3c(I)cc(C(F)(C(F)(F)F)C(F)(F)F)cc3C(F)(F)F)c2F)cc1 [Compound 58]
pest or weed control at 0.04 µg/cm2, 0.04 µg/cm2 (Ctenocephalides felis [1]): 95%
pest or weed control at 0.2 µg/cm2, 0.2 µg/cm2 (Ctenocephalides felis [1]): 95%
pest or weed control at 1 µg/cm2, 1 µg/cm2 (Ctenocephalides felis [1]): 95%
pest or weed control at 0.2 µg/cm2, 0.2 µg/cm2 (Amblyomma americanum): 90%
pest or weed control at 1 µg/cm2, 1 µg/cm2 (Amblyomma americanum): 90%
pest or weed control at 1 µg/cm2, 1 µg/cm2 (Rhipicephalus sanguineus): 90%
pest or weed control at 32 ng [2]: 100%
pest or weed control at 0.00016 mg [2]: 100%
pest or weed control at 0.0008 mg [2]: 100%
pest or weed control at 0.8 ppm (Ctenocephalides felis [3]): 95%
pest or weed control at 4 ppm (Ctenocephalides felis [3]): 95%
pest or weed control at 100 ppm (Spodoptera litura): ≥ 70%
pest or weed control at 100 ppm (Plutella xylostella): ≥ 70%
pest or weed control at 100 ppm (Laodelphax striatellus): ≥ 70%

CN(C(=O)c1ccc(Cl)c(Cl)c1)c1cccc(C(=O)Nc2c(I)cc(C(F)(C(F)(F)F)C(F)(F)C(F)(F)F)cc2C(F)(F)F)c1F (centres unmarked) [Compound 75]
pest or weed control at 0.2 µg/cm2, 0.2 µg/cm2 (Ctenocephalides felis [1]): 95%
pest or weed control at 1 µg/cm2, 1 µg/cm2 (Ctenocephalides felis [1]): 95%
pest or weed control at 1 µg/cm2, 1 µg/cm2 (Amblyomma americanum): 90%
pest or weed control at 0.2 µg/cm2, 0.2 µg/cm2 (Rhipicephalus sanguineus): 90%
pest or weed control at 1 µg/cm2, 1 µg/cm2 (Rhipicephalus sanguineus): 90%
pest or weed control at 0.00016 mg [2]: 100%
pest or weed control at 0.0008 mg [2]: 100%
pest or weed control at 0.8 ppm (Ctenocephalides felis [3]): 95%
pest or weed control at 4 ppm (Ctenocephalides felis [3]): 95%
pest or weed control at 100 ppm (Spodoptera litura): ≥ 70%
pest or weed control at 100 ppm (Plutella xylostella): ≥ 70%
pest or weed control at 100 ppm (Laodelphax striatellus): ≥ 70%

CN(C(=O)c1ccc(F)cc1F)c1cccc(C(=O)Nc2c(I)cc(C(F)(C(F)(F)F)C(F)(F)F)cc2C(F)(F)F)c1F [Compound 56]
pest or weed control at 0.04 µg/cm2, 0.04 µg/cm2 (Ctenocephalides felis [1]): 95%
pest or weed control at 0.2 µg/cm2, 0.2 µg/cm2 (Ctenocephalides felis [1]): 95%
pest or weed control at 1 µg/cm2, 1 µg/cm2 (Ctenocephalides felis [1]): 95%
pest or weed control at 0.04 µg/cm2, 0.04 µg/cm2 (Amblyomma americanum; dose 0.04 μg/cm^2, 48 h): 90%
pest or weed control at 0.2 µg/cm2, 0.2 µg/cm2 (Amblyomma americanum): 90%
pest or weed control at 1 µg/cm2, 1 µg/cm2 (Amblyomma americanum): 90%
pest or weed control at 0.2 µg/cm2, 0.2 µg/cm2 (Dermacentor variabilis): 90%
pest or weed control at 1 µg/cm2, 1 µg/cm2 (Dermacentor variabilis): 90%
pest or weed control at 32 ng [2]: 100%
pest or weed control at 0.00016 mg [2]: 100%
pest or weed control at 0.0008 mg [2]: 100%
pest or weed control at 0.16 ppm (Ctenocephalides felis [3]): 95%
pest or weed control at 0.8 ppm (Ctenocephalides felis [3]): 95%
pest or weed control at 4 ppm (Ctenocephalides felis [3]): 95%
pest or weed control at 100 ppm (Spodoptera litura): ≥ 70%
pest or weed control at 100 ppm (Plutella xylostella): ≥ 70%
pest or weed control at 100 ppm (Laodelphax striatellus): ≥ 70%
